Reference: US8546357B2, “Boron-containing small molecules for controlling ectoparasites” (priority 2011, dated 2013)

Columns and labels:
[1] = test system: cat flea (Ctenocephalides felis); assay: Therapeutic efficacy and speed of kill against adult cat flea infestations on dogs, oral; type: in vivo; conditions: oral capsule 20 mg/kg
Description: The therapeutic efficacy and speed of kill of 7, administered orally at a point dose of 20 mg/kg bodyweight, was evaluated against adult cat flea (Ctenocephalides felis) infestations on dogs. Eighteen (18) male and female beagle dogs were allocated to one of six treatment groups (n=3 dogs per group). Groups 1, 2 and 3 were untreated, negative controls and groups 4, 5 and 6 received 7. On Day −1, all dogs were infested with approximately 100 unfed, adult fleas (approximately 50% male and 50% female). On Day 0, dogs in groups 4, 5 and 6 were orally administered gelatin capsules containing 7, at a point dose of 20 mg/kg (50% technical active, 47% microcrystalline cellulose and 3% croscarmellose sodium, w/w). At eight (8) hours post-treatment, fleas were counted and removed from dogs in groups 1 and 4; at twelve (12) hours post-treatment, fleas were counted and removed from dogs in groups 2 and 5; and at twenty-four (24) hours post-treatment, fleas were counted and removed from dogs in groups 3 and 6. GM percent efficacy of treatments against fleas was calculated using the following formula: […]

[2] = test system: adult American dog tick (Dermacentor variabilis); assay: Therapeutic (knockdown) and residual efficacy against adult American dog tick infestations on dogs, oral; type: in vivo; conditions: for Residual efficacy: Example 7, oral capsule 35 mg/kg
Description: The therapeutic (knockdown) and residual efficacy of 5, administered orally at a point dose of 25 mg/kg bodyweight, was evaluated against adult American dog tick (D. variabilis) infestations on dogs. Six beagle dogs were allocated to one of two treatment groups, an untreated control group (n=4 dogs) or 5 group (n=2 dogs). On Day 0, two dogs were treated with 5 via oral gavage (25 mg/ml 5, dissolved in a solution of 55% polyethylene glycol-300, 35% propylene glycol and 10% water) at a point dose of approximately 25 mg/kg. Twenty-four (24) hours before treatment (Day −1), all dogs were infested with approximately 50 unfed, adult-stage American dog ticks (D. variabilis; approximately 50% male and 50% female). On Day 1, approximately 24 hours after treatment, thumb counts were conducted to determine the number and life-status classification of ticks present on all dogs (normal, moribund or dead; attached or detached). Ticks were not removed during thumb counts. On Day 2, approximately 48 hours after treatment, all ticks were classified and removed from dogs. Dogs were re-infested with approximately 50 unfed, adult D. variabilis ticks on Days 5 and 12, with tick classification, counts and removal on Days 7 and 14 (approximately 48 hours after each infestation).
The therapeutic (knockdown) and residual efficacy of 7 and 8, each administered orally at a point dose of 25 mg/kg bodyweight, was evaluated against adult tick (Dermacentor variabilis and Rhipicephalus sanguineus) and adult cat flea (Ctenocephalides felis) infestations on dogs. Twelve (12) male and female beagle dogs were randomly allocated to one of three treatment groups, four (4) dogs per group: Untreated control; 7, 25 mg/kg; and 8, 25 mg/kg. On Day −1, all dogs were infested with approximately 50 unfed, adult D. variabilis ticks. On Day 0, dogs were orally administered gelatin capsules containing either 7 or 8 (50% technical active, 47% microcrystalline cellulose and 3% croscarmellose sodium, w/w). Ticks were counted and classified, but not removed, on all dogs on Day 1, approximately 24 hours after treatment. On Day 2, approximately 48 hours after treatment, ticks were counted, classified and removed. Dogs were re-infested with the same number of D. variabilis ticks on Days 5, 12, 19 and 28 and tick counts were conducted on Days 7, 14, 21 and 30.
The therapeutic (knockdown) and residual efficacy of 7, administered orally at a point dose of 35 mg/kg bodyweight, was evaluated against adult tick (Dermacentor variabilis and Rhipicephalus sanguineus) and adult cat flea (Ctenocephalides felis) infestations on dogs. Twelve (12) male and female beagle dogs were allocated to either an untreated, negative control group or 7 group (n=6 dogs per group). Dogs were infested with approximately 50 unfed, adult D. variabilis ticks on Days −1, 5, 12, 19, 28, 35 and 42. On Day 0, dogs were orally administered gelatin capsules containing Compound 8194 (50% technical active, 47% microcrystalline cellulose and 3% croscarmellose sodium, w/w) at a point dose of 35 mg/kg. D. variabilis tick counts and classification were conducted on Day 1 (thumb count, approximately 24 hours after treatment) and Days 2, 7, 14, 21, 30, 37 and 44 (approximately 48 hours after treatment). Following removal of D. variabilis ticks on Day 30, all dogs were co-infested with approximately 50 unfed, adult brown dog ticks (R. sanguineus) and approximately 100 unfed, adult cat fleas (C. felis). Brown dog tick and cat flea counts were conducted on Day 32 (approximately 48 hours after infestation). GM percent efficacy of treatments against both tick species and fleas was calculated using the following formula: […]
The therapeutic (knockdown) and residual efficacy of S-enantiomer, 9, administered orally at a point dose of 25 mg/kg bodyweight, was evaluated against adult tick (Dermacentor variabilis and Rhipicephalus sanguineus) and adult cat flea (Ctenocephalides felis) infestations on dogs. […]

[3] = Table 2, oral capsule 25 mg/kg, Day 2
[4] = Table 2, oral capsule 25 mg/kg, Day 7
[5] = Table 2, oral capsule 25 mg/kg, Day 14
[6] = Table 2, oral capsule 25 mg/kg, Day 21
[7] = Table 2, oral capsule 25 mg/kg, Day 30
[8] = Table 3, oral capsule 35 mg/kg, Day 2
[9] = Table 3, oral capsule 35 mg/kg, Day 7
[10] = Table 3, oral capsule 35 mg/kg, Day 14
[11] = Table 3, oral capsule 35 mg/kg, Day 21
[12] = Table 3, oral capsule 35 mg/kg, Day 30
[13] = Table 3, oral capsule 35 mg/kg, Day 37
[14] = Table 3, oral capsule 35 mg/kg, Day 44

SMILES: Cc1cc(C2=NOC(c3cc(Cl)c(Cl)c(Cl)c3)(C(F)(F)F)C2)ccc1C(=O)NCc1ccc2c(c1)B(O)OC2(C)C (centres unmarked) [Compound 7, N-((1-Hydroxy-3,3-dimethyl-1,3-dihydrobenzo[c][1,2]oxaborol-6-yl)methyl)-2-methyl-4-(5-(3,4,5-trichlorophenyl)-5-(trifluoromethyl)-4,5-dihydroisoxazol-3-yl)benzamide]
- % efficacy ([1]; 8 hours post-treatment): (90.4) %
- Geometric mean group live flea counts ([1]; 8 hours post-treatment): 7.9
- Geometric mean group live flea counts ([1]; 12 hours post-treatment): 0.0
- % efficacy ([1]; 24 hours post-treatment): (100) %
- Geometric mean group live flea counts ([1]; 24 hours post-treatment): 0.0
- knockdown against an existing flea infestation ([1]; eight (8) hours of treatment): rapid knockdown
- continued residual efficacy ([2]; Example 6, oral capsule 25 mg/kg, through at least 14 days): 100%
- Residual efficacy ([2]; through Day 14): > 99%
- Residual efficacy ([2]; through Day 37): > 95%
- Geometric mean group live parasite counts ([2]; Table 2, oral capsule 25 mg/kg, Day 1): 0.0
- % efficacy [2, 3]: (100) %
- Geometric mean group live parasite counts [2, 3]: 0.0
- % efficacy [2, 4]: (100) %
- Geometric mean group live parasite counts [2, 4]: 0.0
- % efficacy [2, 5]: (100) %
- Geometric mean group live parasite counts [2, 5]: 0.0
- % efficacy [2, 6]: (99.3) %
- Geometric mean group live parasite counts [2, 6]: 0.3
- % efficacy [2, 7]: (73.2) %
- Geometric mean group live parasite counts [2, 7]: 9.5
- Geometric mean group live parasite counts ([2]; Table 3, oral capsule 35 mg/kg, Day 1): 0.1
- % efficacy [2, 8]: (100) %
- Geometric mean group live parasite counts [2, 8]: 0.0
- % efficacy [2, 9]: (99.1) %
- Geometric mean group live parasite counts [2, 9]: 0.3
- % efficacy [2, 10]: (100) %
- Geometric mean group live parasite counts [2, 10]: 0.0
- % efficacy [2, 11]: (98.4) %
- Geometric mean group live parasite counts [2, 11]: 0.2
- % efficacy [2, 12]: (98.7) %
- Geometric mean group live parasite counts [2, 12]: 0.4
- % efficacy [2, 13]: (95.7) %
- Geometric mean group live parasite counts [2, 13]: 1.2
- % efficacy [2, 14]: (67.2) %
- Geometric mean group live parasite counts [2, 14]: 9.3
